Experimental data: US12252524B2, “GIP/GLP1 co-agonist compounds” (Eli Lilly and Company, priority 2018, dated 2025)
Like-named read-outs stand apart in the source and are kept apart here. Numbered stars: 1 amine (or outer) side, 2 acyl side, 3 side chain; on linkers, the order of the positions; unused ones are H or OH. Square brackets hold non-standard residues; d marks the D form. Side chains are listed from the residue outwards. Peptide text beside a SMILES is read from it. * marks the point of attachment. C20 diacid = O=C(O)CCCCCCCCCCCCCCCCCCC(=O)*; C18 diacid = O=C(O)CCCCCCCCCCCCCCCCC(=O)*; αMePhe(2-F) = C[C@](N)(Cc1ccccc1F)C(=O)O; γGlu = O=C(O)[C@H](CCC(=O)[*:2])N[*:1]; αMeL = CC(C)C[C@](C)(N)C(=O)O; Orn = NCCC[C@H](N)C(=O)O; AEEA = NCCOCCOCC(=O)O; Aib = CC(C)(N)C(=O)O

Tests used:
[1] = Proteolytic stability assay in 1% rat small intestinal fluid (rSIF); conditions: for percentage of peptide not cleaved using rSIF: 0 min, 1% rSIF, 37° C.; for remaining at 0.05 h, 0.4 mg/mL / remaining at 0.25 h, 0.4 mg/mL / remaining at 1 h, 0.4 mg/mL: rat, real gastrointestinal fluid or homogenate, pH 8
Protocol: The stability of peptides are compared in 1% rat small intestinal fluid (rSIF). The amount of intact peptide is measured for a sample peptide at 0, 3, 15, and 30 minutes to assess proteolytic stability. The amount of intact peptide for a sample peptide is measured in 90% pig small intestinal fluid (pSIF) at 0, 30, 45, and 60 minutes to assess the proteolytic stability.
Peptides are prepared at 0.4 mg/mL in 50 mM Tris pH8.0. […] The mixture is incubated at 37° C. at 150 rpm. Thirty μL of each sample are removed and placed into a new tube before the rSIF is added and at […]. At each time point, the reaction was quenched by 1% TFA in 50% ACN at 1:1. The samples are diluted 100 times using dilution buffer (1:1 of 1% TFA in 50% ACN: 50 mM Tris pH8) and ready for analysis using mass spectrometry (MS).
(§1) The data analysis is performed using MassLynx.

in vivo [2] = conditions: male, CD-1, mouse, plasma, sc, 200 nmol/kg
Protocol: The pharmacokinetics of select Examples are evaluated following a single subcutaneous administration of 200 nMol/kg to male CD-1 mice. […] Plasma (K3 EDTA) concentrations are determined using a qualified LC/MS method that measures the intact mass of the Examples. […] Instruments are combined for LC/MS detection.

in vivo [3] = conditions: male, cynomolgus monkey, plasma, sc, 50 nmol/kg
Protocol: Pharmacokinetics in male Cynomolgus Monkeys The pharmacokinetics of select Examples are evaluated following a single subcutaneous administration of 50 nMol/kg to male cynomolgus monkeys. […] Peptide plasma (K3 EDTA) concentrations are determined using a qualified LC/MS method that measured the intact mass of the compound. […] Instruments are combined for LC/MS detection.

[4] = Peptide stability in 50% v/v pig small intestinal fluid with and without protease inhibitor; assay type: in vitro ADME; conditions: for remaining at 0.25 h / remaining at 0.5 h / remaining at 1 h: read-out: % peptide intact
Protocol: A peptide is incubated at 37° C. in 1% (v/v) rat small intestinal fluid or 50% (v/v) pig small intestinal fluid with and without a peptidase inhibitor. At different time points, samples are taken out, followed by quenching with 1% TFA in 50% ACN/water to stop the enzyme activity. The intact peptide at different time points is analyzed by high-performance liquid chromatography (HPLC) equipped with an ultraviolet (UV) detector or LC-MS/MS and normalized to the amount of peptide before mixing with the enzyme solution.

[5] = Proteolytic stability assay in 90% pig small intestinal fluid (pSIF); assay type: in vitro ADME; conditions: 90% pSIF, 37° C.
Protocol: Peptides are diluted to a concentration of 0.4 mg/mL in 90% pig small intestinal fluid. After the mixing, 20 μL are immediately removed (time 0 for the time point of pre-incubation). The mixture is then incubated at 37° C. at 150 rpm. […] The sample is centrifuged at 20,000×g for 20 min at 4° C.
as §1

[6] = pH 8, with rSBTI (5 mg/mL), protease inhibitor, rSBTI (5 mg/mL), 15 min
[7] = pH 8, with rSBTI (5 mg/mL), protease inhibitor, rSBTI (5 mg/mL), 30 min
[8] = pH 8, with rSBTI (5 mg/mL), protease inhibitor, rSBTI (5 mg/mL), 60 min

| SMILES | percentage of peptide not cleaved using rSIF [1] [%] | remaining at 0.05 h, 0.4 mg/mL [1] [%] | remaining at 0.25 h, 0.4 mg/mL [1] [%] | remaining at 1 h, 0.4 mg/mL [1] [%] | CL/F (in vivo [2]) [mL/h/kg] | Tmax (in vivo [2]) [h] | half-life (in vivo [2]) [h] | CL/F (in vivo [3]) [mL/h/kg] | Tmax (in vivo [3]) [h] | half-life (in vivo [3]) [h] | % peptide intact ([4]; no PI, control, 0 min) [%] | remaining at 0.25 h ([4]; pH 8, no PI, control, 15 min) [%] | remaining at 0.5 h ([4]; pH 8, no PI, control, 30 min) [%] | remaining at 1 h ([4]; pH 8, no PI, control, 60 min) [%] | remaining at 0.25 h [4, 6] [%] | remaining at 0.5 h [4, 7] [%] | remaining at 1 h [4, 8] [%] | % peptide intact ([4]; rSBTI (5 mg/mL), 0 min) [%] | other results |
| --- | --- | --- | --- | --- | --- | --- | --- | --- | --- | --- | --- | --- | --- | --- | --- | --- | --- | --- | --- |
| CC[C@H](C)[C@H](NC(=O)[C@H](CC(C)C)NC(=O)[C@H](Cc1ccc(O)cc1)NC(=O)[C@@H](CCC(=O)O)NC(=O)[C@@H](NC(=O)[C@H](Cc1ccccc1)NC(=O)[C@H](CCC(=O)O)NC(=O)C(C)(C)NC(=O)[C@H](CCC(N)=O)NC(=O)[C@H](C)NC(=O)[C@H](CCCCNC(=O)COCCOCCNC(=O)COCCOCCNC(=O)CC[C@H](NC(=O)CCCCCCCCCCCCCCCCCCC(=O)O)C(=O)O)NC(=O)[C@H](CCC(=O)O)NC(=O)[C@H](CC(=O)O)NC(=O)[C@H](CC(C)C)NC(=O)[C@](C)(CC(C)C)NC(=O)[C@@H](NC(=O)[C@H](CO)NC(=O)[C@H](Cc1ccc(O)cc1)NC(=O)[C@H](CC(=O)O)NC(=O)[C@H](CO)NC(=O)[C@@H](NC(=O)[C@](C)(Cc1ccccc1F)NC(=O)[C@@H](NC(=O)CNC(=O)[C@H](CCC(=O)O)NC(=O)C(C)(C)NC(=O)[C@@H](N)Cc1ccc(O)cc1)[C@@H](C)O)[C@@H](C)O)[C@@H](C)CC)[C@@H](C)CC)C(=O)N[C@@H](CCC(=O)O)C(=O)NCC(=O)NCC(=O)N1CCC[C@H]1C(=O)N[C@@H](CO)C(=O)N[C@@H](CO)C(=O)NCC(=O)N[C@@H](C)C(=O)N1CCC[C@H]1C(=O)N1CCC[C@H]1C(=O)N1CCC[C@H]1C(=O)N[C@@H](CO)C(N)=O [Example 1] (H-Y[Aib]EGT[αMePhe(2-F)]TSDYSI[αMeL]LDEK([AEEA-AEEA-γGlu-C20 diacid])AQ[Aib]EFI[dE]YLIEGGPSSGAPPPS-NH2) | 100 | 82.4 | 41.4 | 1.6 | 7.37 | 12 | 17.5 | 0.69 | 18 | 125 | – | – | – | – | – | – | – | – | – |
| CC[C@H](C)[C@H](NC(=O)[C@H](CC(C)C)NC(=O)[C@H](Cc1ccc(O)cc1)NC(=O)[C@@H](CCC(=O)O)NC(=O)[C@@H](NC(=O)[C@H](Cc1ccccc1)NC(=O)[C@H](CCC(=O)O)NC(=O)C(C)(C)NC(=O)[C@H](CCC(N)=O)NC(=O)[C@H](C)NC(=O)[C@H](CCCCNC(=O)COCCOCCNC(=O)COCCOCCNC(=O)CC[C@H](NC(=O)CCCCCCCCCCCCCCCCC(=O)O)C(=O)O)NC(=O)[C@H](CCCN)NC(=O)[C@H](CC(=O)O)NC(=O)[C@H](CC(C)C)NC(=O)[C@](C)(CC(C)C)NC(=O)[C@@H](NC(=O)[C@H](CO)NC(=O)[C@H](Cc1ccc(O)cc1)NC(=O)[C@H](CC(=O)O)NC(=O)[C@H](CO)NC(=O)[C@@H](NC(=O)[C@](C)(Cc1ccccc1F)NC(=O)[C@@H](NC(=O)CNC(=O)[C@H](CCC(=O)O)NC(=O)C(C)(C)NC(=O)[C@@H](N)Cc1ccc(O)cc1)[C@@H](C)O)[C@@H](C)O)[C@@H](C)CC)[C@@H](C)CC)C(=O)N[C@@H](CCC(=O)O)C(=O)NCC(=O)NCC(=O)N1CCC[C@H]1C(=O)N[C@@H](CO)C(=O)N[C@@H](CO)C(=O)NCC(=O)N[C@@H](C)C(=O)N1CCC[C@H]1C(=O)N1CCC[C@H]1C(=O)N1CCC[C@H]1C(=O)N[C@@H](CO)C(N)=O [Example 2] (H-Y[Aib]EGT[αMePhe(2-F)]TSDYSI[αMeL]LD[Orn]K([AEEA-AEEA-γGlu-C18 diacid])AQ[Aib]EFI[dE]YLIEGGPSSGAPPPS-NH2; N-terminus assumed) | 100 | 75.5 | 18.3 | 0.3 | 12.9 | 6 | 7.55 | 0.49 | 24 | 102 | 100.00 | 2.42 | 1.9 | 3.09 | 103 | 113 | 87.3 | 100.00 | % peptide intact ([4]; rSBTCI (0.5 mg/mL), 0 min): 100.00%; % peptide intact ([4]; rSBTCI (0.5 mg/mL), 15 min): 131.71%; % peptide intact ([4]; rSBTCI (0.5 mg/mL), 30 min): 126.53%; % peptide intact ([4]; rSBTCI (0.5 mg/mL), 60 min): 123.70% |
| CC[C@H](C)[C@H](NC(=O)[C@H](CC(C)C)NC(=O)[C@H](Cc1ccc(O)cc1)NC(=O)[C@@H](CCC(=O)O)NC(=O)[C@@H](NC(=O)[C@H](Cc1ccccc1)NC(=O)[C@H](CCC(=O)O)NC(=O)C(C)(C)NC(=O)[C@H](CCC(N)=O)NC(=O)[C@H](C)NC(=O)[C@H](CCCCNC(=O)COCCOCCNC(=O)COCCOCCNC(=O)CC[C@H](NC(=O)CCCCCCCCCCCCCCCCCCC(=O)O)C(=O)O)NC(=O)[C@H](CCCN)NC(=O)[C@H](CC(=O)O)NC(=O)[C@H](CC(C)C)NC(=O)[C@](C)(CC(C)C)NC(=O)[C@@H](NC(=O)[C@H](CO)NC(=O)[C@H](Cc1ccc(O)cc1)NC(=O)[C@H](CC(=O)O)NC(=O)[C@H](CO)NC(=O)[C@@H](NC(=O)[C@](C)(Cc1ccccc1F)NC(=O)[C@@H](NC(=O)CNC(=O)[C@H](CCC(=O)O)NC(=O)C(C)(C)NC(=O)[C@@H](N)Cc1ccc(O)cc1)[C@@H](C)O)[C@@H](C)O)[C@@H](C)CC)[C@@H](C)CC)C(=O)N[C@@H](CCC(=O)O)C(=O)NCC(=O)NCC(=O)N1CCC[C@H]1C(=O)N[C@@H](CO)C(=O)N[C@@H](CO)C(=O)NCC(=O)N[C@@H](C)C(=O)N1CCC[C@H]1C(=O)N1CCC[C@H]1C(=O)N1CCC[C@H]1C(=O)N[C@@H](CO)C(N)=O [Example 3] | 100 | 68.8 | 25.8 | 0.3 | 6.31 | 6 | 15 | 0.29 | 30 | 181 | – | – | – | – | – | – | – | – | – |
| CC[C@H](C)[C@H](NC(=O)[C@H](CC(C)C)NC(=O)[C@](C)(Cc1ccc(O)cc1)NC(=O)[C@@H](CCC(=O)O)NC(=O)[C@@H](NC(=O)[C@H](Cc1ccccc1)NC(=O)[C@H](CCC(=O)O)NC(=O)C(C)(C)NC(=O)[C@H](CCC(N)=O)NC(=O)[C@H](C)NC(=O)[C@H](CCCCNC(=O)COCCOCCNC(=O)COCCOCCNC(=O)CC[C@H](NC(=O)CCCCCCCCCCCCCCCCC(=O)O)C(=O)O)NC(=O)[C@H](CCCN)NC(=O)[C@H](CC(=O)O)NC(=O)[C@H](CC(C)C)NC(=O)[C@](C)(CC(C)C)NC(=O)[C@@H](NC(=O)[C@H](CO)NC(=O)[C@H](Cc1ccncc1)NC(=O)[C@H](CC(=O)O)NC(=O)[C@H](CO)NC(=O)[C@@H](NC(=O)[C@](C)(Cc1ccccc1F)NC(=O)[C@@H](NC(=O)CNC(=O)[C@H](CCC(=O)O)NC(=O)C(C)(C)NC(=O)[C@@H](N)Cc1ccc(O)cc1)[C@@H](C)O)[C@@H](C)O)[C@@H](C)CC)[C@@H](C)CC)C(=O)N[C@@H](CCC(=O)O)C(=O)NCC(=O)NCC(=O)N1CCC[C@H]1C(=O)N[C@@H](CO)C(=O)N[C@@H](CO)C(=O)NCC(=O)N[C@@H](C)C(=O)N1CCC[C@H]1C(=O)N1CCC[C@H]1C(=O)N1CCC[C@H]1C(=O)N[C@@H](CO)C(N)=O [Example 4] | 100 | 97.9 | 99.3 | 89.4 | – | – | – | – | – | – | 100.00 | 72.5 | 41.4 | 19 | 97 | 96.3 | 88.6 | 100.00 | percentage of peptide not cleaved using pSIF ([5]; 0 min): 100%; remaining at 0.5 h, 0.4 mg/mL ([5]; pig, 90% pig small intestinal fluid (pSIF), 30 min, read-out: percentage of peptide not cleaved using pSIF): 73.4%; remaining at 0.75 h, 0.4 mg/mL ([5]; pig, 90% pig small intestinal fluid (pSIF), 45 min, read-out: percentage of peptide not cleaved using pSIF): 56.4%; remaining at 1 h, 0.4 mg/mL ([5]; pig, 90% pig small intestinal fluid (pSIF), 60 min, read-out: percentage of peptide not cleaved using pSIF): 60% |
